Assay results taken from patent US12121512B2, “Anti-fungal agent” (priority 2019, dated 2024).
Values after ≈ are worked out from the molar mass of the structure shown.

Experiments:
[1] = system: Cryptococcus neoformans var. grubii clinical isolates and multi-azole resistant strains; assay: microbe, parasite or virus in culture; assay type: cell-based; details: E-test; for MIC range: 14 isolates (Nos. 1-14); for MIC: Cryptococcus neoformans
Excerpt: Six isolates of cryptococcus were obtained from skin-infected cats and five from systemically infected cats, for a total of 11 strains.
(§1) Three isolates of cryptococcus were acquired from skin-infected humans.
(§2) All of the above-acquired isolates were Cryptococcus neoformans var. grubii strains (type A).
(§3) Further, as described below, 3 multidrug-resistant strains resistant to fluconazole (FLCZ) and voriconazole (VRCZ) as azole-based antifungal agents were acquired.
(§4) Thereafter, 12 colonies generated on the plate were inoculated on Sabouraud glucose agar medium containing 5 μg/ml of VRCZ. This was cultured at room temperature for 10 days, and the obtained colonies were further subcultured, to obtain 3 azole-based multidrug-resistant strains.
Sensitivity to fluconazole (FLCZ), itraconazole (ITCZ) and voriconazole (VRCZ) was evaluated using the E-test. […] E-test gradient strips were purchased from AB BIODISK. The MICs for FLCZ, ITCZ and VRCZ were determined after culturing at 35° C. for 72 hours. Each isolate was tested twice at shifted times, and each test included twice measurements.

[2] = system: Cryptococcus neoformans var. grubii clinical isolates and multi-azole resistant strains; assay: CLSI M27-A3 broth microdilution MIC assay; assay type: cell-based; details: for MIC: Cryptococcus neoformans
Excerpt: Six isolates of cryptococcus were obtained from skin-infected cats and five from systemically infected cats, for a total of 11 strains. One strain of cat skin cryptococcus and one strain of cat systemic cryptococcus were fluconazole-resistant.
as §1, §2, §3
as §4, with “Clinically separated fluconazole (FLCZ) resistant Cryptococcus neoformans cells (2.3×10^5) were inoculated on Sabouraud glucose agar medium containing 3 μg/ml of voriconazole (VRCZ), and cultured at room temperature for 7 days. Thereafter,” for “Thereafter,”
The strains obtained in Example 1 were maintained on Sabouraud glucose agar medium until the test of sensitivity to antifungal compounds.
Sensitivity to ravuconazole (RVCZ) was determined according to the CLSI M27-A3 guideline using broth microdilution assay. The minimum inhibitory concentration (MIC) was measured after culturing at 35° C. for 72 hours. MIC was defined as the lowest concentration that induces significant inhibition of growth (inhibition of about 50% or more).
CLSI M27-A3 test and E-test MIC assay were performed using Candida parapsilosis ATCC 22019 and Candida kruzei ATCC 6258 purchased from ATCC as controls. As a result, a high correlation was observed between the MIC results of the azole-based drugs obtained in the CLSI M27-A3 test and the E-test, so the results of both were compared.

[3] = 72 h, Strain No. 1, Feline cutaneous cryptococcosis, 35° C.
[4] = 72 h, Strain No. 2, Feline systemic cryptococcosis, 35° C.
[5] = 72 h, Strain No. 3, Feline systemic cryptococcosis, 35° C.
[6] = 72 h, Strain No. 4, Feline cutaneous cryptococcosis, 35° C.
[7] = 72 h, Strain No. 5, Feline cutaneous cryptococcosis, 35° C.
[8] = 72 h, Strain No. 6, Feline systemic cryptococcosis, 35° C.
[9] = 72 h, Strain No. 7, Feline systemic cryptococcosis, 35° C.
[10] = 72 h, Strain No. 8 (FLCZ resistant strain), Feline systemic cryptococcosis, 35° C.
[11] = 72 h, Strain No. 9, Feline systemic cryptococcosis, 35° C.
[12] = 72 h, Strain No. 10, Feline cutaneous cryptococcosis, 35° C.
[13] = 72 h, Strain No. 11, Human cutaneous cryptococcosis, 35° C.
[14] = 72 h, Strain No. 12, Human cutaneous cryptococcosis, 35° C.
[15] = 72 h, Strain No. 13, Human cutaneous cryptococcosis, 35° C.
[16] = 72 h, Strain No. 14 (FLCZ resistant strain), Feline cutaneous cryptococcosis, 35° C.
[17] = 72 h, Strain No. 15, Multi-azole resistance strain, 35° C.
[18] = 72 h, Strain No. 16, Multi-azole resistance strain, 35° C.
[19] = 72 h, Strain No. 17, Multi-azole resistance strain, 35° C.
[20] = azole-based multidrug-resistant strains (Nos. 15-17)
[21] = read-out: average MIC, 14 isolates (Nos. 1-14)

With `OC(Cn1cncn1)(Cn1cncn1)c1ccc(F)cc1F` [FLCZ, fluconazole] the MIC range [1] was <0.016 to 128 µg/mL, the MIC [1, 3] was 3 µg/mL (≈ 9.8 µM) and the MIC [1, 4] was < 0.016 µg/mL. It also gave an MIC [1, 5] of 6 µg/mL (≈ 19.6 µM), an MIC [1, 6] of 16 µg/mL (≈ 52.2 µM) and an MIC [1, 7] of 32 µg/mL (≈ 104 µM). For the same compound, the MIC [1, 8] was 2 µg/mL (≈ 6.53 µM), the MIC [1, 9] was 1.5 µg/mL (≈ 4.9 µM) and the MIC [1, 10] was > 256 µg/mL. For the same compound, the MIC [1, 11] was 1.5 µg/mL (≈ 4.9 µM), the MIC [1, 12] was 14 µg/mL (≈ 45.7 µM) and the MIC [1, 13] was 1.5 µg/mL (≈ 4.9 µM). For the same compound, the MIC [1, 14] was 1.5 µg/mL (≈ 4.9 µM), the MIC [1, 15] was 0.75 µg/mL (≈ 2.45 µM) and the MIC [1, 16] was 128 µg/mL (≈ 418 µM). The MIC [1, 17] was > 256 µg/mL, the MIC [1, 18] was > 256 µg/mL and the MIC [1, 19] was > 256 µg/mL. The MIC [1, 20] was > 256 µg/mL and the MIC [1, 21] was 17.3 µg/mL (≈ 56.5 µM).

In the case of `CCC(C)n1ncn(-c2ccc(N3CCN(c4ccc(OCC5COC(Cn6cncn6)(c6ccc(Cl)cc6Cl)O5)cc4)CC3)cc2)c1=O` (stereo not shown) [ITCZ, itraconazole], the MIC range [1] is reported as <0.002 to 0.75 µg/mL, the MIC [1, 3] is reported as 0.047 µg/mL (≈ 0.0666 µM) and the MIC [1, 4] is reported as 0.002 µg/mL (≈ 0.00283 µM). For the same compound, the MIC [1, 5] was 0.23 µg/mL (≈ 0.326 µM), the MIC [1, 6] was 0.018 µg/mL (≈ 0.0255 µM) and the MIC [1, 7] was 0.5 µg/mL (≈ 0.709 µM). For the same compound, the MIC [1, 8] was 0.064 µg/mL (≈ 0.0907 µM), the MIC [1, 9] was 0.38 µg/mL (≈ 0.539 µM) and the MIC [1, 10] was 0.25 µg/mL (≈ 0.354 µM). For the same compound, the MIC [1, 11] was 0.23 µg/mL (≈ 0.326 µM), the MIC [1, 12] was 0.75 µg/mL (≈ 1.06 µM) and the MIC [1, 13] was 0.19 µg/mL (≈ 0.269 µM). The MIC [1, 14] was 0.125 µg/mL (≈ 0.177 µM), the MIC [1, 15] was 0.125 µg/mL (≈ 0.177 µM) and the MIC [1, 16] was 0.38 µg/mL (≈ 0.539 µM). For the same compound, the MIC [1, 17] was > 32 µg/mL, the MIC [1, 18] was > 32 µg/mL and the MIC [1, 19] was > 32 µg/mL. For the same compound, the MIC [1, 20] was > 32 µg/mL and the MIC [1, 21] was 0.235 µg/mL (≈ 0.333 µM).

For `C[C@@H](c1nc(-c2ccc(C#N)cc2)cs1)[C@](O)(Cn1cncn1)c1ccc(F)cc1F` [RVCZ, ravuconazole], the MIC range ([2]; 14 isolates (Nos. 1-14), CLSI M27-A3) was <0.003125 to 0.25 µg/mL, the MIC ([2]; 72 h, Strain No. 1, Feline cutaneous cryptococcosis, CLSI M27-A3, 35° C.) was 0.0312 µg/mL (≈ 0.0714 µM) and the MIC ([2]; 72 h, Strain No. 2, Feline systemic cryptococcosis, CLSI M27-A3, 35° C.) was 0.0312 µg/mL (≈ 0.0714 µM). For the same compound, the MIC ([2]; 72 h, Strain No. 3, Feline systemic cryptococcosis, CLSI M27-A3, 35° C.) was 0.0312 µg/mL (≈ 0.0714 µM), the MIC ([2]; 72 h, Strain No. 4, Feline cutaneous cryptococcosis, CLSI M27-A3, 35° C.) was 0.0625 µg/mL (≈ 0.143 µM) and the MIC ([2]; 72 h, Strain No. 5, Feline cutaneous cryptococcosis, CLSI M27-A3, 35° C.) was 0.0625 µg/mL (≈ 0.143 µM). It also gave an MIC ([2]; 72 h, Strain No. 6, Feline systemic cryptococcosis, CLSI M27-A3, 35° C.) of 0.125 µg/mL (≈ 0.286 µM), an MIC ([2]; 72 h, Strain No. 7, Feline systemic cryptococcosis, CLSI M27-A3, 35° C.) of 0.0625 µg/mL (≈ 0.143 µM) and an MIC ([2]; 72 h, Strain No. 8 (FLCZ resistant strain), Feline systemic cryptococcosis, CLSI M27-A3, 35° C.) of 0.125 µg/mL (≈ 0.286 µM). For the same compound, the MIC ([2]; 72 h, Strain No. 9, Feline systemic cryptococcosis, CLSI M27-A3, 35° C.) was 0.0312 µg/mL (≈ 0.0714 µM), the MIC ([2]; 72 h, Strain No. 10, Feline cutaneous cryptococcosis, CLSI M27-A3, 35° C.) was 0.125 µg/mL (≈ 0.286 µM) and the MIC ([2]; 72 h, Strain No. 11, Human cutaneous cryptococcosis, CLSI M27-A3, 35° C.) was 0.0312 µg/mL (≈ 0.0714 µM). It also gave an MIC ([2]; 72 h, Strain No. 12, Human cutaneous cryptococcosis, CLSI M27-A3, 35° C.) of 0.0312 µg/mL (≈ 0.0714 µM), an MIC ([2]; 72 h, Strain No. 13, Human cutaneous cryptococcosis, CLSI M27-A3, 35° C.) of 0.0312 µg/mL (≈ 0.0714 µM) and an MIC ([2]; 72 h, Strain No. 14 (FLCZ resistant strain), Feline cutaneous cryptococcosis, CLSI M27-A3, 35° C.) of 0.125 µg/mL (≈ 0.286 µM). For the same compound, the MIC ([2]; 72 h, Strain No. 15, Multi-azole resistance strain, CLSI M27-A3, 35° C.) was 0.5 µg/mL (≈ 1.14 µM), the MIC ([2]; 72 h, Strain No. 16, Multi-azole resistance strain, CLSI M27-A3, 35° C.) was 0.5 µg/mL (≈ 1.14 µM) and the MIC ([2]; 72 h, Strain No. 17, Multi-azole resistance strain, CLSI M27-A3, 35° C.) was 0.25 µg/mL (≈ 0.571 µM). The MIC ([2]; azole-based multidrug-resistant strains (Nos. 15-17), CLSI M27-A3) was 0.25 to 0.5 µg/mL (≈ 0.571 to 1.14 µM) and the MIC ([2]; read-out: average MIC, 14 isolates (Nos. 1-14), CLSI M27-A3) was 0.0376 µg/mL (≈ 0.0859 µM).

`C[C@@H](c1ncncc1F)[C@](O)(Cn1cncn1)c1ccc(F)cc1F` [VRCZ, voriconazole] was tested, and the MIC range [1] was <0.002 to 0.125 µg/mL, the MIC [1, 3] was 0.008 µg/mL (≈ 0.0229 µM) and the MIC [1, 4] was < 0.002 µg/mL. The MIC [1, 5] was 0.032 µg/mL (≈ 0.0916 µM), the MIC [1, 6] was 0.064 µg/mL (≈ 0.183 µM) and the MIC [1, 8] was 0.047 µg/mL (≈ 0.135 µM). For the same compound, the MIC [1, 9] was 0.032 µg/mL (≈ 0.0916 µM), the MIC [1, 10] was 0.094 µg/mL (≈ 0.269 µM) and the MIC [1, 11] was 0.012 µg/mL (≈ 0.0344 µM). It also gave an MIC [1, 12] of 0.023 µg/mL (≈ 0.0658 µM), an MIC [1, 13] of 0.003 µg/mL (≈ 0.00859 µM) and an MIC [1, 14] of 0.006 µg/mL (≈ 0.0172 µM). For the same compound, the MIC [1, 15] was 0.003 µg/mL (≈ 0.00859 µM), the MIC [1, 16] was 0.023 µg/mL (≈ 0.0658 µM) and the MIC [1, 17] was 12 µg/mL (≈ 34.4 µM). For the same compound, the MIC [1, 18] was 8 µg/mL (≈ 22.9 µM), the MIC [1, 19] was 6 µg/mL (≈ 17.2 µM) and the MIC [1, 20] was 6 to 12 µg/mL (≈ 17.2 to 34.4 µM). For the same compound, the MIC [1, 21] was 0.036 µg/mL (≈ 0.103 µM).
